Reference: patent US20260083704A1, “LXR MODULATORS WITH BICYCLIC CORE MOIETY FOR TREATING DYSLIPIDEMIAS” (OrsoBio, Inc., priority 2022, published 2026)
pEC50: −log10 of the molar value.

Columns and labels:
[1] = Short term HFD mouse model: plasma and liver exposure; assay type: in vivo; conditions: HFD mice, 4 h after final dose
Protocol: (§1) The in vivo transcriptional regulation of several LXR target genes by LXR modulators was assessed in mice.
(§2) For this, C57BL/6J were purchased from Elevage Janvier (Rennes, France) at the age of 8 weeks. After an acclimation period of two weeks, animals were prefed on a high fat diet (HFD) (Ssniff Spezialdiäten GmbH, Germany, Surwit EF D12330 mod, Cat. No. E15771-34), with 60 kcal % from fat plus 1% (w/w) extra cholesterol (Sigma-Aldrich, St. Louis, MO) for 5 days. Animals were maintained on this diet during treatment with LXR modulators. The test compounds were formulated in 0.5% hydroxypropylmethylcellulose (HPMC) and administered in three doses (from 1.5 to 20 mg/kg each) by oral gavage according to the following schedule: on day one, animals received treatment in the morning and the evening (ca. 17:00), on day two animals received the final treatment in the morning after a 4 h fast and were sacrificed 4 h thereafter. Animal work was conducted according to the national guidelines for animal care in Germany.
Upon termination, liver was collected, dipped in ice cold PBS for 30 seconds and cut into appropriate pieces. Pieces were snap frozen in liquid nitrogen and stored at −80° C. For the clinical chemistry analysis from plasma, alanine aminotransferase (ALT, IU/mL), cholesterol (CHOL, mg/dL) and triglycerides (TG, mg/dL) were determined using a fully-automated bench top analyzer (Respons®910, DiaSys Greiner GmbH, Flacht, Germany) with system kits provided by the manufacturer.

[2] = system: LXR target genes (Scd1, Fas, Srebp1) in liver; assay: Short term HFD mouse model: gene expression in liver tissue; assay type: in vivo; conditions: HFD mice, expression normalized to Tbp; for response vs control in vivo at 10 mg/kg / response vs control in vivo at 20 mg/kg: Mus musculus, 4 h, read-out: Scd1 suppresion compared to vehicle
Protocol: as §1, §2
Analysis of gene expression in liver tissue. To obtain total RNA from frozen liver tissue, samples (25 mg liver tissue) were first homogenized with RLA buffer (4M guanidin thiocyanate, 10 mM Tris, 0.97% w:v β-mercapto-ethanol). RNA was prepared using a SV 96 total RNA Isolation system (Promega, Madison, Wisconsin, USA) following the manufacturer's instructions. cDNAs were synthesized from 0.8-1 μg of total RNA using All-in-One cDNA Supermix reverse transcriptase (Absource Diagnostics, Munich, Germany). Quantitative PCR was performed and analyzed using Prime time Gene expression master mix (Integrated DNA Technologies, Coralville, Iowa, USA) and a 384-format ABI 7900HT Sequence Detection System (Applied Biosystems, Foster City, USA). The expression of the following genes was analysed: Stearoyl-CoA desaturase1 (Scd1), fatty acid synthase (Fas) and sterol regulatory element-binding protein1 (Srebp1). Specific primer and probe sequences (commercially available) are listed in Table 3. qPCR was conducted at 95° C. for 3 min, followed by 40 cycles of 95° C. for 15 s and 60° C. for 30 s. All samples were run in duplicates from the same RT-reaction. Gene expression was expressed in arbitrary units and normalized relative to the mRNA of the housekeeping gene TATA box binding protein (Tbp) using the comparative Ct method.

[3] = target: T1, GST-LXRβ ligand-binding domain (Homo sapiens, UniProt P55055); assay: TR-FRETβ activity assay (NCoA3 coactivator peptide recruitment); assay type: biochemical; conditions: 1 μM 24(S)-25-epoxycholesterol prestimulation
T1 construct: amino acids 156-461; NP009052; made in house; host or cells: E. coli
T1 sequence (P55055 156-460 limits assumed): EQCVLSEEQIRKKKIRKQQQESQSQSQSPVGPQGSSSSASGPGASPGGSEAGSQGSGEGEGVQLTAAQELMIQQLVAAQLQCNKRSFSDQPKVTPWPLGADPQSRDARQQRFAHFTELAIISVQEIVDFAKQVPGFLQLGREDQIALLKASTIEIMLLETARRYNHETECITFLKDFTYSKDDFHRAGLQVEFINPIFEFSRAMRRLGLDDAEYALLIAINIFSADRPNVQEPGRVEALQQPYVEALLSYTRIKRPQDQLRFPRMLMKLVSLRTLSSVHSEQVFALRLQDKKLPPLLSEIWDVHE
Method in brief: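 E. coli-expressed GST-LXRβ LBD (aa 156-461, 76 nM) with biotinylated NCoA3 peptide (400 nM) in Tris/HCl pH 6.8 containing 1 μM 24(S)-25-epoxycholesterol agonist. Compounds tested at 50 μM down to 0.002 μM in triplicate. TR-FRET (Tb cryptate/XL665, ex 340, em 615/665 nm) read after 1 h at 4° C.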

[4] = three oral doses of 10 mg/kg over two days
[5] = three oral doses of 20 mg/kg over two days

| SMILES | liver exposure 4 h [1, 4] | liver/plasma ratio 4 h [1, 4] | plasma exposure 4 h [1, 4] | Srebp1c suppr. compared to vehicle ([2]; three oral doses of 10 mg/kg) | response vs control in vivo at 10 mg/kg ([2]; three oral doses of 10 mg/kg) | pEC50 [3] | liver exposure 4 h [1, 5] | liver/plasma ratio 4 h [1, 5] | plasma exposure 4 h [1, 5] | Fasn suppression compared to vehicle ([2]; three oral doses of 20 mg/kg) | Srebp1c suppr. compared to vehicle ([2]; three oral doses of 20 mg/kg) | response vs control in vivo at 20 mg/kg ([2]; three oral doses of 20 mg/kg) | Fasn suppression compared to vehicle ([2]; three oral doses of 10 mg/kg) |
| --- | --- | --- | --- | --- | --- | --- | --- | --- | --- | --- | --- | --- | --- |
| N#Cc1cccc(C#N)c1-c1c(-c2cccc(-c3ccc(C(=O)O)cc3Cl)c2)n(S(=O)(=O)c2ccc(C(F)(F)F)nc2)c2ccc(F)cc12 [11/37] | C (1 μM to ≤10 μM) | C (30 to ≤100) | D (<100 nM) | D (<0.3) | < 30% | > 7.00 |  |  |  |  |  |  |  |
| N#Cc1ccccc1-c1c(-c2cccc(-c3ccc(C(=O)O)cc3Cl)c2)n(S(=O)(=O)c2ccc(C(F)F)cc2)c2cnccc12 [11/49] |  |  |  |  |  | > 7.00 | C (1 μM to ≤10 μM) | D (>100) | D (<100 nM) | C (0.3 to ≤0.6) | C (0.3 to ≤0.6) | < 30% |  |
| N#Cc1cccc(C#N)c1-c1c(-c2cccc(-c3ccc(C(=O)O)cc3F)c2)n(S(=O)(=O)c2ccc(C(F)F)cc2)c2ccc(F)cc12 [11/51] | C (1 μM to ≤10 μM) | C (30 to ≤100) | D (<100 nM) | D (<0.3) | < 30% | > 7.00 |  |  |  |  |  |  |  |
| N#Cc1cccc(C#N)c1-c1c(-c2cccc(-c3c(F)cc(C(=O)O)cc3F)c2)n(S(=O)(=O)c2ccc(C(F)F)cc2)c2ccc(F)cc12 [11/53] | C (1 μM to ≤10 μM) | C (30 to ≤100) | D (<100 nM) | D (<0.3) | < 30% | > 7.00 |  |  |  |  |  |  |  |
| N#Cc1cccc(C#N)c1-c1c(-c2cccc([C@H]3CC[C@H](C(=O)O)CC3)c2)n(S(=O)(=O)c2ccc(C(F)F)cc2)c2ccc(F)cc12 [11/62] | C (1 μM to ≤10 μM) | B (5 to ≤30) | C (100 nM to <300 nM) | D (<0.3) | < 30% | 6.00 to 7.00 |  |  |  |  |  |  |  |
| N#Cc1cccc(C#N)c1-c1c(-c2cccc(-c3ccc(C(=O)O)cc3Cl)c2)n(S(=O)(=O)C2CCC(F)(F)CC2)c2ccc(F)cc12 [11/63] | C (1 μM to ≤10 μM) | B (5 to ≤30) | D (<100 nM) | D (<0.3) | 30 to 60% | 6.00 to 7.00 |  |  |  |  |  |  |  |
| N#Cc1cccc(C#N)c1-c1c(-c2cccc(-c3cc(F)c(C(=O)O)cc3Cl)c2)n(S(=O)(=O)c2ccc(C(F)F)cc2)c2ccc(F)cc12 [11/65] | C (1 μM to ≤10 μM) | C (30 to ≤100) | D (<100 nM) | D (<0.3) | < 30% | > 7.00 |  |  |  |  |  |  |  |
| Cc1ccc(S(=O)(=O)n2c(-c3cccc(-c4ccc(C(=O)O)cc4)c3)c(-c3ccsc3C#N)c3cc(F)ccc32)cc1C [23/2] |  |  |  |  |  | 6.00 to 7.00 | A (<300 nM) | A (<5) | C (100 nM to <300 nM) | C (0.3 to ≤0.6) |  | < 30% |  |
| CS(=O)(=O)NC(=O)c1ccc(-c2cccc(-c3c(-c4c(C#N)cccc4C#N)c4cc(F)ccc4n3S(=O)(=O)c3ccc(C(F)F)cc3)c2)c(Cl)c1 [32/5] | B (300 nM to ≤1 μM) | B (5 to ≤30) | D (<100 nM) | C (0.3 to ≤0.6) | 30 to 60% | > 7.00 |  |  |  |  |  |  |  |
| N#Cc1cccc(C#N)c1-c1c(-c2cccc(-c3ccc(C(=O)NCC(=O)O)cc3Cl)c2)n(S(=O)(=O)c2ccc(C(F)F)cc2)c2ccc(F)cc12 [Compound 21/3] | C (1 μM to ≤10 μM) | D (>100) | D (<100 nM) |  | < 30% | > 7.00 |  |  |  |  |  |  | C (0.3 to ≤0.6) |
